In patent publication US6552167B1, “Polyamide chains of precise length” (Gryphon Therapeutics, Inc., priority 1998, dated 2003):
Positions of bridges follow the written chain, without caps; N, C: chain ends. 'PEG'‑succ = not defined here

Tests used:
BCL, turnor cell line = conditions: disulfide bond between the cysteines; Terskikh, et al.; cited from earlier work
Solubility in solvents = assay type: physicochemical
chymotrypsin = experiment: Polyamide stability to protease digestion, HPLC analysis (chymotrypsin); conditions: 24 hours; 1 mg/ml in 1% ammonium bicarbonate, enzyme:substrate 1:100, 37° C.
Experimental: (§1) The compounds produced in Examples 8 and 9 were separately dissolved at 1 mg/ml in a 1% ammonium bicarbonate solution. In separate tubes, these solutions were treated with trypsin, chymotrypsin and elastase (enzyme:substrate ratio 1:100, 37° C.). Aliquots (20 μl) were withdrawn at intervals and analyzed by HPLC.

trypsin = experiment: Polyamide stability to protease digestion, HPLC analysis (trypsin); conditions: 24 hours; 1 mg/ml in 1% ammonium bicarbonate, enzyme:substrate 1:100, 37° C.
Experimental: as §1

elastase = experiment: Polyamide stability to protease digestion, HPLC analysis (elastase); conditions: 24 hours; 1 mg/ml in 1% ammonium bicarbonate, enzyme:substrate 1:100, 37° C.
Experimental: as §1

[1] = tested on: human leukemic UT-7 EPO dependent cell line; experiment: EPO activity in a cell culture assay (UT-7 EPO dependent cell line); assay type: cell-based; conditions: for ED50 (effective dose giving 50% of maximum response): UT-7 EPO dependent cell line
Experimental: Precise Length EMP-dimers with linkers of different lengths were assayed for EPO activity in a cell culture assay (human leukemic UT-7 EPO dependent cell line). Recombinant EPO and the EMP monomer peptides were included as controls, where the monomer is designated as “mono” in Table 1.
The short linker in the precise length EMP-dimer (designated “s” in Table 1) was -(‘PEG’-succ)2-‘PEG’-(succ-‘PEG’)2-. The medium linker (designated “m” in Table 1) was -(‘PEG’-succ)6-‘PEG’-(succ-‘PEG’)6- and the long linker (designated “1” in Table 1) was -(‘PEG’-succ)8-‘PEG’-(succ-‘PEG’)8-.
Table 1 presents the mean OD's for each peptide sample.
Table 2 presents the mean OD's for recombinant EPO sample.
It was clear, from the results presented above, that the ED50 (effective dose giving 50% of maximum response) values were as presented in Table 3.

ADGACRNPWC (H-ADGACRNPWC-{'PEG'‑succ-'PEG'‑succ-'PEG'‑succ-'PEG'‑succ-'PEG'‑succ-'PEG'‑succ-'PEG'‑succ-'PEG'‑succ-Lys(AoA)-NH2}; disulfide 5-10 (inferred); reading uncertain; also: four copies oximated to fluorescein-labelled Lys2Lys template (tetrameric chemobody)) [phage-derived peptide]
binding to the BCL tumor cell line (BCL, turnor cell line): bound

Fmoc-Ser(But)-(‘PEG’-succ)8-Abu-OH
solubility in the water/acetonitrile/TFA HPLC solvent system (Solubility in solvents): perfectly soluble

H-PQPQPKPQPQPQPQPKPQPKPEPE-NH2 [SEQ ID NO:5]
digestion by chymotrypsin (chymotrypsin): stable | digestion by trypsin (trypsin): digested extensively | digestion by elastase (elastase): stable

Recombinant EPO: recombinant erythropoietin, control
mean OD ([1]; EPO 1.85 ng/ml): .878 | mean OD ([1]; EPO 5.56 ng/ml): .885 | mean OD ([1]; EPO 16.7 ng/ml): .920 | mean OD ([1]; EPO 50 ng/ml): .917 | mean OD ([1]; EPO .00254 ng/ml): .101 | mean OD ([1]; EPO .00762 ng/ml): .108 | mean OD ([1]; EPO .0229 ng/ml): .124 | mean OD ([1]; EPO .0686 ng/ml): .179 | mean OD ([1]; EPO .206 ng/ml): .362 | mean OD ([1]; EPO .617 ng/ml): .650 | ED50 (effective dose giving 50% of maximum response) [1]: 25 pM

amide-GRLPQCVWTMPGMHCAYLGG-COCH2ON═CH—CO-(‘PEG’-succ)12-‘PEG’-CH═NOCH2CO-GGLYACHMGPMTWVCQPLRG-amide [EMP-m (medium dimer)]
ED50 (effective dose giving 50% of maximum response) [1]: 1 pM | mean OD ([1]; concentration 1 × 10^−1 μM): .884 | mean OD ([1]; concentration 1.11 × 10^−2 μM): .876 | mean OD ([1]; concentration 1.24 × 10^−3 μM): .916 | mean OD ([1]; concentration 1.37 × 10^−4 μM): .760 | mean OD ([1]; concentration 1.52 × 10^−5 μM): .597 | mean OD ([1]; concentration 1.69 × 10^−6 μM): .641 | mean OD ([1]; concentration 1.88 × 10^−7 μM): .363 | mean OD ([1]; concentration 2.09 × 10^−8 μM): .287 | mean OD ([1]; concentration 2.32 × 10^−9 μM): .246 | mean OD ([1]; concentration 3.33 × 10^−2 μM): .902 | mean OD ([1]; concentration 3.70 × 10^−3 μM): .888 | mean OD ([1]; concentration 4.12 × 10^−4 μM): .805 | mean OD ([1]; concentration 4.57 × 10^−5 μM): .637 | mean OD ([1]; concentration 5.08 × 10^−6 μM): .712 | mean OD ([1]; concentration 5.65 × 10^−7 μM): .469 | mean OD ([1]; concentration 6.27 × 10^−8 μM): .350 | mean OD ([1]; concentration 6.97 × 10^−9 μM): .280

erythropoietin mimetic peptide monomer, GGLYACHMGPMTWVCQPLRG (SEQ ID NO:1), control [EMP monomer, reference compound]
ED50 (effective dose giving 50% of maximum response) [1]: 20,000 pM | mean OD ([1]; concentration 1 × 10^−1 μM): .878 | mean OD ([1]; concentration 1.11 × 10^−2 μM): .373 | mean OD ([1]; concentration 1.24 × 10^−3 μM): .078 | mean OD ([1]; concentration 1.37 × 10^−4 μM): .089 | mean OD ([1]; concentration 3.33 × 10^−2 μM): .673 | mean OD ([1]; concentration 3.70 × 10^−3 μM): .210 | mean OD ([1]; concentration 4.12 × 10^−4 μM): .078
